Where two headings read alike, the source gives them in different places.
Target: T1, SFRP-1 (Homo sapiens, UniProt Q8N474)
T1 sequence (Q8N474 32-314): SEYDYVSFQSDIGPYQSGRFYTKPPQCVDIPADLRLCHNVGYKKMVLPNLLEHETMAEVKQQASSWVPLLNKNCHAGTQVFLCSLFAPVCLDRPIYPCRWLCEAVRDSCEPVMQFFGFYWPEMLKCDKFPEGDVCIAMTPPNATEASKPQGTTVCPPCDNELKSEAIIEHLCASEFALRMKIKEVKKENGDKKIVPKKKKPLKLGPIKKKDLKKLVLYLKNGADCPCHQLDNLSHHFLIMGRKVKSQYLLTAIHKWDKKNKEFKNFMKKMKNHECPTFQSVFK
Test: Cell-based assay for in vitro measurement of SFRP-1/SARP2 antagonist activity (U2OS cells co-transfected with 16x TCF-tk-Luciferase reporter, Wnt and hSFRP-1);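 note: U2OS cells co-transfected with a TCF-tk luciferase reporter, a Wnt vector, hSFRP-1 or empty vector and CMV-βgal, luciferase luminescence read in cell lysates alongside βgal activity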
Settings: for fold induction at 15 µM: U2OS

[1] = read-out: Fold Induction with SFRP-1, Conc 15 μM, with SFRP-1, fold induction over SFRP-1 control, single dose
[2] = read-out: Fold Induction without SFRP-1, Conc 15 μM, without SFRP-1, single dose

Row | Compound | fold induction at 15 µM [1] | fold induction at 15 µM [2] | Fold Induction with SFRP-1 (Conc 15 μM, with SFRP-1, fold induction over SFRP-1 control, single dose) [fold] | Fold Induction without SFRP-1 (Conc 15 μM, without SFRP-1, single dose) [fold]
1 | CCc1ccc(S(=O)(=O)c2ccccc2)cc1S(=O)(=O)NCCc1ccccc1OC [Example 142, 2-ethyl-N-[2-(2-methoxyphenyl)ethyl]-5-(phenylsulfonyl)benzenesulfonamide] | 3.2 | 1.3 | – | –
2 | CCc1ccc(S(=O)(=O)c2ccccc2)cc1S(=O)(=O)NCCc1cccc(OC)c1 [Example 143, 2-ethyl-N-[2-(3-methoxyphenyl)ethyl]-5-(phenylsulfonyl)benzenesulfonamide] | 3.3 | 0.7 | – | –
3 | CCc1ccc(S(=O)(=O)c2ccccc2)cc1S(=O)(=O)NCCc1ccc(OC)c(OC)c1 [Example 144, N-[2-(3,4-dimethoxyphenyl)ethyl]-2-ethyl-5-(phenylsulfonyl)benzenesulfonamide] | 3 | 1.1 | – | –
4 | CCc1ccc(S(=O)(=O)c2ccccc2)cc1S(=O)(=O)NCCc1ccc(S(N)(=O)=O)cc1 [Example 145, N-{2-[4-(aminosulfonyl)phenyl]ethyl}-2-ethyl-5-(phenylsulfonyl)benzenesulfonamide] | 2.2 | 1.2 | – | –
5 | CCc1ccc(S(=O)(=O)c2ccccc2)cc1S(=O)(=O)NCCc1cccc(F)c1 [Example 146, 2-ethyl-N-[2-(3-fluorophenyl)ethyl]-5-(phenylsulfonyl)benzenesulfonamide] | 2.1 | 1.3 | – | –
6 | CCc1ccc(S(=O)(=O)c2ccccc2)cc1S(=O)(=O)NCCc1ccccc1F [Example 147, 2-ethyl-N-[2-(2-fluorophenyl)ethyl]-5-(phenylsulfonyl)benzenesulfonamide] | 3.2 | 1 | – | –
7 | CCOc1cc(CCNS(=O)(=O)c2cc(S(=O)(=O)c3ccccc3)ccc2CC)ccc1OC [Example 148, N-[2-(3-ethoxy-4-methoxyphenyl)ethyl]-2-ethyl-5-(phenylsulfonyl)benzenesulfonamide] | 2.8 | 1.1 | – | –
8 | COc1ccc(S(=O)(=O)c2ccccc2)cc1S(=O)(=O)NCCc1ccccc1 [Example 150, 2-methoxy-N-(2-phenylethyl)-5-(phenylsulfonyl)benzenesulfonamide] | 1.5 | 1.2 | – | –
9 | COc1ccccc1CCNS(=O)(=O)c1cc(S(=O)(=O)c2ccccc2)ccc1OC [Example 151, 2-methoxy-N-[2-(2-methoxyphenyl)ethyl]-5-(phenylsulfonyl)benzenesulfonamide] | 1.4 | 1.1 | – | –
10 | COc1cccc(CCNS(=O)(=O)c2cc(S(=O)(=O)c3ccccc3)ccc2OC)c1 [Example 152, 2-methoxy-N-[2-(3-methoxyphenyl)ethyl]-5-(phenylsulfonyl)benzenesulfonamide] | 1.6 | 1.1 | – | –
11 | COc1ccc(CCNS(=O)(=O)c2cc(S(=O)(=O)c3ccccc3)ccc2OC)cc1OC [Example 153, N-[2-(3,4-dimethoxyphenyl)ethyl]-2-methoxy-5-(phenylsulfonyl)benzenesulfonamide] | 1.5 | 1.1 | – | –
12 | COc1ccc(S(=O)(=O)c2ccccc2)cc1S(=O)(=O)NCCc1cccc(F)c1 [Example 155, N-[2-(3-fluorophenyl)ethyl]-2-methoxy-5-(phenylsulfonyl)benzenesulfonamide] | 1.5 | 1.2 | – | –
13 | COc1ccc(S(=O)(=O)c2ccccc2)cc1S(=O)(=O)NCCc1ccccc1F [Example 156, N-[2-(2-fluorophenyl)ethyl]-2-methoxy-5-(phenylsulfonyl)benzenesulfonamide] | 1.4 | 1.4 | – | –
14 | COC(=O)CCNS(=O)(=O)c1cc(S(=O)(=O)c2ccc(F)cc2)ccc1C [Example 160, methyl N-({5-[(4-fluorophenyl)sulfonyl]-2-methylphenyl}sulfonyl)-beta-alaninate] | 2.4 | 0.9 | – | –
15 | Cc1ccc(S(=O)(=O)c2ccc(F)cc2)cc1S(=O)(=O)NCCC1CCCN1C (stereo not shown) [Example 164, 5-[(4-fluorophenyl)sulfonyl]-2-methyl-N-[2-(1-methylpyrrolidin-2-yl)ethyl]benzenesulfonamide] | 1.9 | 1.1 | – | –
16 | Cc1ccc(S(=O)(=O)c2ccc(F)cc2)cc1S(=O)(=O)NCCc1ccncc1 [Example 165, 5-[(4-fluorophenyl)sulfonyl]-2-methyl-N-(2-pyridin-4-ylethyl)benzenesulfonamide] | 3.3 | 1 | – | –
17 | Cc1ccc(S(=O)(=O)c2ccc(F)cc2)cc1S(=O)(=O)NCCN1CCCCC1 [Example 166, 5-[(4-fluorophenyl)sulfonyl]-2-methyl-N-(2-piperidin-1-ylethyl)benzenesulfonamide] | 2 | 1.1 | – | –

The next lines start with the values.

Row | fold induction at 15 µM [1] | fold induction at 15 µM [2] | Fold Induction with SFRP-1 (Conc 15 μM, with SFRP-1, fold induction over SFRP-1 control, single dose) [fold] | Fold Induction without SFRP-1 (Conc 15 μM, without SFRP-1, single dose) [fold] | Compound
18 | 3.1 | 1.1 | – | – | CCOc1ccc(CCNS(=O)(=O)c2cc(S(=O)(=O)c3ccccc3)ccc2CC)cc1OC [Example 149, N-[2-(4-ethoxy-3-methoxyphenyl)ethyl]-2-ethyl-5-(phenylsulfonyl)benzenesulfonamide]
19 | 1.4 | 1.3 | – | – | COc1ccc(S(=O)(=O)c2ccccc2)cc1S(=O)(=O)NCCc1ccc(S(N)(=O)=O)cc1 [Example 154, N-{2-[4-(aminosulfonyl)phenyl]ethyl}-2-methoxy-5-(phenylsulfonyl)benzenesulfonamide]
20 | 1.5 | 1.2 | – | – | CCOc1cc(CCNS(=O)(=O)c2cc(S(=O)(=O)c3ccccc3)ccc2OC)ccc1OC [Example 157, N-[2-(3-ethoxy-4-methoxyphenyl)ethyl]-2-methoxy-5-(phenylsulfonyl)benzenesulfonamide]
21 | 1.4 | 1.1 | – | – | CCOc1ccc(CCNS(=O)(=O)c2cc(S(=O)(=O)c3ccccc3)ccc2OC)cc1OC [Example 158, N-[2-(4-ethoxy-3-methoxyphenyl)ethyl]-2-methoxy-5-(phenylsulfonyl)benzenesulfonamide]
22 | 1.8 | 0.9 | – | – | Cc1ccc(S(=O)(=O)c2ccc(F)cc2)cc1S(=O)(=O)NCCC(N)=O [Example 159, N^3-({5-[(4-fluorophenyl)sulfonyl]-2-methylphenyl}sulfonyl)-beta-alaninamide]
23 | 2.7 | 1 | – | – | Cc1ccc(S(=O)(=O)c2ccc(F)cc2)cc1S(=O)(=O)NCCC#N [Example 161, N-(2-cyanoethyl)-5-[(4-fluorophenyl)sulfonyl]-2-methylbenzenesulfonamide]
24 | 2.7 | 0.8 | 2.5 | 1 | Cc1ccc(S(=O)(=O)c2ccc(F)cc2)cc1S(=O)(=O)NCCc1ccccn1 [Example 162, 5-[(4-fluorophenyl)sulfonyl]-2-methyl-N-(2-pyridin-2-ylethyl)benzenesulfonamide]
25 | 2 | 0.9 | – | – | Cc1ccc(S(=O)(=O)c2ccc(F)cc2)cc1S(=O)(=O)NCCCN1CCOCC1 [Example 163, 5-[(4-fluorophenyl)sulfonyl]-2-methyl-N-(3-morpholin-4-ylpropyl)benzenesulfonamide]
